Patent US9090652B2, “Bile acid derivatives as FXR ligands for the prevention or treatment of FXR-mediated diseases or conditions” (Intercept Pharmaceuticals, Inc., priority 2006, dated 2015)
Values after ≈ are worked out from the molar mass of the structure shown. “Also recorded” adds a separate entry of the source. Structures can show the parent of a compound that is named as a salt. Where two headings read alike, the source gives them in different places. Marks after values point to notes of the source that are not given here.

Tests used:
[1] = Critical micellar concentration by surface tension (maximum bubble-pressure); format: physicochemical; settings: for CMC NaCl 0.15M: in NaCl 0.15 M; for CMC H2O: in water
Experimental: This value was determined by surface tension measurements using a maximum bubble-pressure method. The tensiometer was a Sensadyne 6000 (Chem-Dyne Research Corp., Milwaukee, Wis.) equipped with two glass probes of 0.5 and 4.0 mm diameters connected to a source of nitrogen. The bubble frequency was 1 bubble/second in distilled water at 26° C. (P=2.7 atm) and the calibration was made with double-distilled water and methanol. The surface tension of BA sodium salts solutions both in water and in NaCl 0.15 M was measured at various concentrations range, 0.2-75 mM and 0.3-100 mM respectively. The surface tension values were plotted against the logarithm of the bile salt concentration; the regression lines corresponding to the two parts of the curve (monomeric and micellar phases) were calculated using the method of least squares, and the intersection of the lines was taken as the CMC value.

bovine serum albumin = molecular target: T1, bovine serum albumin (Bos taurus, UniProt P02769); experiment: Albumin binding by equilibrium dialysis; format: in vitro ADME; settings: 100 μM BA in 5% bovine serum albumin-saline, 25° C.
T1 construct: 5% bovine serum albumin-saline solution
T1 sequence (P02769 25-607): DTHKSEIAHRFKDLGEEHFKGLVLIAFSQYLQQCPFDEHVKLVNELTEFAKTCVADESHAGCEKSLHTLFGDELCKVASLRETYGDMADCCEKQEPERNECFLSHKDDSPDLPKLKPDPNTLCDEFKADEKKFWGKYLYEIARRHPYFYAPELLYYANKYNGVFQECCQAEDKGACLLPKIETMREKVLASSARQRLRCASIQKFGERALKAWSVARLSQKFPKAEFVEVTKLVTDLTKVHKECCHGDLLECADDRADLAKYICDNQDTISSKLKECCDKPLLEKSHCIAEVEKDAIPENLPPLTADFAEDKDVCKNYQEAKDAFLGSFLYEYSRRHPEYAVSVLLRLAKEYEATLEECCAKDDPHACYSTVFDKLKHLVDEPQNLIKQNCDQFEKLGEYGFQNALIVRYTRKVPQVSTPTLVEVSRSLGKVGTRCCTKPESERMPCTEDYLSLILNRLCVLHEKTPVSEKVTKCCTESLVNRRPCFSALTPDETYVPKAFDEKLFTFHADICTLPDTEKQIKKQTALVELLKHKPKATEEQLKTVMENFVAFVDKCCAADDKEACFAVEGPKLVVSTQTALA
Experimental: Albumin binding was evaluated by equilibrium dialysis at a fixed BA-albumin ratio. BA was dissolved at a concentration of 100 μM in 5% bovine serum albumin-saline solution and left to stand for 24 h at 25° C. Two ml of this solution was dialyzed in cellulose sacs having a molecular weight cut-off of 12-14,000 against 25 ml of saline solution. The system was equilibrated by mechanical shaking for 72 h at 25° C. BA concentrations of the dialyzed solution and of the starting solution were determined with HPLC-ESI-MS/MS in the same conditions of the previous analysis.

Critical micellar pH = format: physicochemical; settings: CMpH=pKa+log CMC/WS
From the text: This value can be experimentally determined by evaluating the pH at which a given BA starts to precipitate from a micellar solution. It can be calculated from the CMC Water solubility of the protonated species and pKa using the formula: CMpH=pKa+log CMC/WS.

[2] = Hepatic metabolism and biliary secretion in bile fistula rat after iv infusion; format: in vivo; settings: for Main form / hepatic metabolite secreted in bile: at the administered dose
Experimental: The BA were administered by infusion to bile fistula rat and bile collected at 15 min intervals for 7 hours. The bile flow was measured and bile analyzed using HPLC-ES-MS-MS for the identification of the rate of biliary secretion and to evaluate the major hepatic metabolites.
Bile acids and their metabolites were determined by a liquid chromatography-tandem mass spectrometry (HPLC-MS/MS) method using electrospray (ESI) source in negative ionization mode. Rat bile samples were brought to room temperature and diluted 1:100 v/v-1:1000 v/v with 15 mM ammonium acetate buffer (pH=5). Then, 10 μL were injected into the chromatographic column. Liquid chromatography was performed using a Waters Alliance 2695 separation module coupled with autosampler. Bile acids were analyzed using a Synergi Hydro-RP C18 column (150×2.0 mm i.d., 4 μm particle size), protected by a SecurityGuard ODS 4×2.0 mm i.d. precolumn, both supplied from Phenomenex. Bile acids were separated in elution gradient using 15 mM ammonium acetate buffer (pH=5.00) as mobile phase A and acetonitrile as mobile phase B. Mobile phase B was increased from 30% to 64% in 12 min, then to 70% in 8 min, and finally brought to 100% in 10 min and held constant for 1 min. […] The column effluent was analysed by ESI-MS/MS using a Quattro-LC (Micromass) triple quadruple mass spectrometer operating in Multiple Reaction Monitoring (MRM) acquisition mode. MassLynx software version 4.0 was used for data acquisition and processing.

[3] = system: Intestinal bacteria (human stools cultures); experiment: Metabolic stability in human stools culture (7α-dehydroxylation); format: in vitro ADME
Experimental: Homogenized fresh human stools (500 mg) were transferred into sterile vials to which 5 mL of sterilized chopped meat-glucose medium (Scott Lab., Fiskville, R.I.) was added. BA were then added at a final concentration of 0.05 mM. Vials were incubated at 37 C; then, at 0, 4, 8, 16, 20, 24, and 72 h after the addition of the BA, the reaction was stopped with 150 L of 30% KOH. The samples were centrifuged at 3500 rpm for 10 min; from the supernatant the BA were isolated by C-18 solid-phase extraction and analyzed by TLC and HPLC-ES-MS/MS. Thin-layer chromatography (TLC), utilizing silica gel 0.25 m thickness plates (Merck, Darmstat, Germany), was employed as the first screening test. The solvent system used for the separation of conjugated BA was composed of propionic acid/isoamyl acetate/water/N-propanol (3:4:1:2, v/v/v/v; solvent I), and that of the unconjugated BA was acetic acid/carbon tetrachloride/isopropyl ether/isoamyl acetate/water/N-propanol/benzene (1:4:6:8:2:2, v/v/v/v/v/v; solvent II).

ANIT-induced cholestasis [4] = settings: previous unpublished studies by Fiorucci et al.; cited from earlier work
[5] = Water solubility of protonated bile acids; settings: 0.1 M HCl, pH 1, simulated gastric fluid, thermodynamic from solid
Experimental: (§1) Solid BA were suspended in 5 ml of 0.1 M HCl. The saturated solutions, after incubation for 1 week, were filtered on a Millipore filter (0.22 μm) and the concentration of BA was measured by HPLC-ESI-MS/MS using C18 column (150 mm×2 mm i.d., 4 μm) and mobile phases of water containing 15 mM acetic acid pH 5 and acetonitrile. The flow rate was 150 μl/min. The mass spectrometry acquisition was performed in the multiple reaction monitoring mode using the ESI source in negative ionization. Water solubility was expressed as μmol/liter

[6] = 1-Octanol/water partition coefficient, shake-flask; settings: pH 8, 0.1 mM bile salt
Experimental: (§2) 1-Octanol/water partition coefficient (log P) was evaluated using a conventional shake-flask procedure. […] The aqueous buffer was previously pre-saturated with 1-octanol, 5 ml of 1-octanol pre-saturated with water was then added and the samples were left to equilibrate for 2 weeks under continuous stirring at room temperature After centrifugation the two phases were carefully separated. BA concentration in the water phase was measured with HPLC-ESI-MS/MS using C18 column (150 mm×2 mm i.d., 4 μm) and mobile phases: A: water containing 15 mM acetic acid pH 5, B: acetonitrile. The flow rate was 150 μl/min and the column was maintained at 45° C. The mass spectrometry acquisition was performed in the multiple reaction monitoring mode using the ESI source in negative ionization.

FXR = molecular target: T2, FXR (Homo sapiens, UniProt Q96RI1); experiment: Luciferase transactivation assay in transfected HepG2 cells; format: cell-based; settings: ammonium salt
T2 construct: expressed in transfected cells; host or cells: HepG2
T2 sequence (Q96RI1 1-486): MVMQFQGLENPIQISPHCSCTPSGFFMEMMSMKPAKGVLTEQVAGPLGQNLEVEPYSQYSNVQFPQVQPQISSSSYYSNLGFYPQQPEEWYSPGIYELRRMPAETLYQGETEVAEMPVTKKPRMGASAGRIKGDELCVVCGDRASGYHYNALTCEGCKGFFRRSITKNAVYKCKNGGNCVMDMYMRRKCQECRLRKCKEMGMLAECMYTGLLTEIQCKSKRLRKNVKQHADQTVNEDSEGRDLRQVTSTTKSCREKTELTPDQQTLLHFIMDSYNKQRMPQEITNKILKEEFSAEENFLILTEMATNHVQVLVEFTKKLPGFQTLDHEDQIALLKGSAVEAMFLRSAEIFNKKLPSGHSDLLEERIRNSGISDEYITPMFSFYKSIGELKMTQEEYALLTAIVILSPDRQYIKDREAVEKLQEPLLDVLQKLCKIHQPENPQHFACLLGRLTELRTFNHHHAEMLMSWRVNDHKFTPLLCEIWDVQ
T2 sequence (P19793 1-462 partner): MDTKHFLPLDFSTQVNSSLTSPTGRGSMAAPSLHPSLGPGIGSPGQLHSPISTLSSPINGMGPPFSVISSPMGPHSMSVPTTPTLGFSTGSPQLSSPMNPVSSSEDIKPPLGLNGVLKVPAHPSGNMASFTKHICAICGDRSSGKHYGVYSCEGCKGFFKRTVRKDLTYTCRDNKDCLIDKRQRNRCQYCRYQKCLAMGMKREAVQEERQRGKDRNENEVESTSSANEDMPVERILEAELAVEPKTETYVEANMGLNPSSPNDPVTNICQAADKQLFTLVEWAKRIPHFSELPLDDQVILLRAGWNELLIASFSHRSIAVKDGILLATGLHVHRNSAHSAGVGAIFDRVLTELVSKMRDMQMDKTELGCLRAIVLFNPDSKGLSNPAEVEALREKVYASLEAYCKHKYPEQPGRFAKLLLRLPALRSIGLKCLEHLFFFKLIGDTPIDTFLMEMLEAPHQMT
Experimental: Briefly, for luciferase assay, HepG2 cells were cultured in E-MEM supplemented with 1% penicillin/streptomycin, 1% L-glutamine and 10% fetal bovine serum (high glucose) (CELBIO). Cells were grown at 37° C. in 5% CO2. All the transfections were making using a calcium phosphate coprecipitation method in the presence of 25 μM chloroquine as inhibitor for DNA degradation. Transient transfections were performed using 500 ng of reporter vector phsp27-TKLUC, 200 ng pCMV-βgal, as internal control for transfection efficiency, and 50 ng of each receptor expression plasmid pSG5-FXR, pSG5-RXR. The pGEM vector was added to normalize the amounts of DNA transfected in each assay (2.5 μg). The transfection efficiency was evaluated by β-gal expression, obtained by co-transfecting the cells with pCMV-β-gal plasmid. […] Control cultures received vehicle (0.1% DMSO) alone. Cells were lysed in 100 μl diluted reporter lysis buffer (Promega), and 0.2 μl cellular lisate was assayed for luciferase activity using Luciferase Assay System (Promega). Luminescence was measured using an automated luminometer. Luciferase activities were normalized for transfection efficiencies by dividing the relative light units by β-galactosidase activity.

[7] = system: FXR related genes in liver; experiment: FXR target gene expression in liver of intact mice (Real-Time PCR); format: in vivo, Balb/c mice; settings: 4 days
From the text: Six- to eight-week old female Balb/c mice were obtained from Charles River (Charles River Laboratories, Inc., Wilmington, Mass.). […] All procedures in this study were approved by the Animal Study Committees of the University of Perugia (Italy) according to governmental guidelines for animal care. […] At the end of the experiment mice were sacrificed and liver was removed to perform Real Time PCR analysis of FXR target genes.

ANIT-induced cholestasis [8] = experiment: ANIT-induced cholestasis in rat; format: in vivo, Wistar rats; settings: ANIT treated rats, ammonium salt
Experimental: Wistar Rats studies were approved by the Animal Study Committee of the University of Perugia. Male Wistar rats (200-250 g) were obtained from Charles River Breeding Laboratories (Portage, Mich.) and maintained on standard laboratory rat chow on a 12-h light/dark cycle. […] Control rats (N=4) were administered vehicle (physiologic solution I.P.). At the end of the study, rats were sacrificed under anaesthesia with sodium pentobarbital (50 mg/kg i.p.) and terminally bled via cardiac puncture; the liver was removed and weighted for examination and blood samples were taken. Rat genes expression was evaluated by quantitative real-time polymerase chain reaction (RT-PCR) as previously described herein.

[9] = pH 1
Experimental: as §1

[10] = pH 8
Experimental: as §2

[11] = values from literature, cited from earlier work; for CMC NaCl 0.15M: in NaCl 0.15 M; for CMC H2O: in water
[12] = value from literature; cited from earlier work
[13] = system: pancreatic esterases (pancreatin); experiment: Metabolic stability in simulated duodenal/pancreatic fluid (USP); format: in vitro ADME, porcine
Experimental: Simulated pancreatic fluid was prepared by dissolving 10 g/L Pancreatin (Sigma P8096: pancreatin from porcine pancreas, activity 1×USP specifications) in 0.05M phosphate buffer, pH=7.2±0.1. […] After incubation, a 2-mL aliquot of each solution was added with 2 mL of 0.1M NaOH and subjected to bile acids extraction by SPE and analysis by thin-layer chromatography and mass spectrometry as described above.

[14] = 5 mg/kg intraperitoneal, ammonium salt

Structure (SMILES): CC[C@H]1[C@@H](O)[C@@H]2[C@H](CC[C@]3(C)[C@@H]([C@H](C)CCC(=O)O)CC[C@@H]23)[C@@]2(C)CC[C@@H](O)C[C@@H]12 [INT-747, 3α,7α-dihydroxy-6α-ethyl-5β-cholan-24-oic acid]
- ST50: Surface Tension of 50 mM aqueous solution [1]: 43.2 Dyne/cm
- STCMC: Surface Tension at CMC in water [1]: 48.8 Dyne/cm
- CMC NaCl 0.15M [1]: 2.9 mM
- Concentration at which a gel phase forms ([1]; in the presence of Na+ 0.15 M): > 60000 µM
- CMC H2O [1]: 4.5 mM
- % Binding (albumin) (bovine serum albumin): 96%
- CMpH (critical micellar pH) (Critical micellar pH): 7.6
- CMpH (critical micellar pH) (Critical micellar pH; listed as UPF 747): 7.7
- Main form / hepatic metabolite secreted in bile [2]: taurine conjugate
- Stability in human stool cultures [3]: very stable
- Reduction of liver injury in ANIT model (ANIT-induced cholestasis [4]): not effective
- solubility at 1 week [5]: 9 µM (≈ 3.79 µg/mL)
- LogPA− (1-octanol-water partition coefficient, ionized species) [6]: 2.5

Structure (SMILES): CC[C@H]1[C@@H](O)C2C3CCC(C(C)CCOS(=O)(=O)O)[C@@]3(C)CCC2[C@@]2(C)CC[C@@H](O)C[C@@H]12 (stereo partly drawn) [UPF-987, 3α,7α,23-trihydroxy-6α-ethyl-24-nor-5β-cholan-23-sulphate triethyl ammonium salt]
- Transactivation of FXR (FXR): transactivates FXR
- Liver BSEP expression [7, 14]: potent induction; also recorded: induces liver
- Liver SHP expression [7, 14]: potent induction; also recorded: induces liver
- Downregulation of liver Cyp7a1 ([7]; 5 mg/kg): 60-70%
- Liver FAS mRNA expression ([7]; 5 mg/kg, ammonium salt): reduced
- inhibition at 5 mg/kg ([7]; Mus musculus, 96 h, read-out: Inhibition of liver SREBP-1c): 90%
- Liver injury / cholestasis (plasma AST, γGT, alkaline phosphatase, cholesterol) (ANIT-induced cholestasis [8]; UPF-987 5 and 3 mg/kg daily): attenuates liver injury; also recorded: reduces ANIT
- Liver expression of NTCP, CYP7A1 and BSEP (ANIT-induced cholestasis [8]): modulates liver

Structure (SMILES): C[C@H](CCC(=O)O)[C@H]1CC[C@H]2[C@@H]3[C@@H](O)C[C@@H]4C[C@H](O)CC[C@]4(C)[C@H]3CC[C@]12C [UDCA]
- ST50: Surface Tension of 50 mM aqueous solution [1]: 50.4 Dyne/cm
- STCMC: Surface Tension at CMC in water [1]: 63.0 Dyne/cm
- CMC NaCl 0.15M [1]: 6.0 mM
- CMC H2O [1]: 26 mM
- % Binding (albumin) (bovine serum albumin): 94%
- CMpH (critical micellar pH) (Critical micellar pH): 8.4
- Water Solubility [9]: 7.5 µM
- LogPA− (1-octanol-water partition coefficient, ionized species) [10]: 2.2

Structure (SMILES): C[C@H](CCC(=O)NCCS(=O)(=O)O)[C@H]1CC[C@H]2[C@@H]3[C@@H](O)C[C@@H]4C[C@H](O)CC[C@]4(C)[C@H]3CC[C@]12C [TUDCA]
- % Binding (albumin) (bovine serum albumin): 67%
- CMC NaCl 0.15M [11]: 2.2* mM
- CMC H2O [11]: 8.0* mM
- LogPA− (1-octanol-water partition coefficient, ionized species) [12]: 1.0*

Structure (SMILES): C[C@H](CCC(=O)O)[C@H]1CC[C@H]2[C@@H]3[C@H](O)C[C@@H]4C[C@H](O)CC[C@]4(C)[C@H]3CC[C@]12C [CDCA, chenodeoxycholic acid]
- ST50: Surface Tension of 50 mM aqueous solution [1]: 48.5 Dyne/cm
- STCMC: Surface Tension at CMC in water [1]: 55.6 Dyne/cm
- CMC NaCl 0.15M [1]: 3.0 mM
- CMC H2O [1]: 7.5 mM
- % Binding (albumin) (bovine serum albumin): 93%
- CMpH (critical micellar pH) (Critical micellar pH): 7.6
- Half-life time ([3]; human stool cultures): one
- Metabolism (7-dehydroxylation to lithocholic acid) ([3]; human stool cultures, after 8 hours of incubation): almost completely metabolized
- LogPA− (1-octanol-water partition coefficient, ionized species) [6]: 2.2

Structure (SMILES): C[C@H](CCC(=O)NCCS(=O)(=O)O)[C@H]1CC[C@H]2[C@@H]3[C@H](O)C[C@@H]4C[C@H](O)CC[C@]4(C)[C@H]3CC[C@]12C [TCDCA]
- CMC NaCl 0.15M [11]: 3.0* mM
- CMC H2O [11]: 7.0* mM
- LogPA− (1-octanol-water partition coefficient, ionized species) [6]: 0.9

Structure (SMILES): CC[C@H]1[C@@H](O)C2C3CCC(C(C)CCOS(=O)(=O)[O-])[C@@]3(C)CCC2[C@@]2(C)CC[C@@H](O)C[C@@H]12.[Na+] (stereo partly drawn) [INT-1103, 3α,7α,23-trihydroxy-6α-ethyl-24-nor-5β-cholan-23-sulphate sodium salt]
- ST50: Surface Tension of 50 mM aqueous solution [1]: 43.3 Dyne/cm
- STCMC: Surface Tension at CMC in water [1]: 47.9 Dyne/cm
- CMC NaCl 0.15M [1]: 1.3 mM
- CMC H2O [1]: 3.9 mM
- % Binding (albumin) (bovine serum albumin): 85%
- Main form / hepatic metabolite secreted in bile [2]: 3-glucoronide
- Amount of administered dose secreted into bile ([2]; iv infusion 3 umol/Kg/min, bile collected 7 hours): 30-40%
- Stability in human stool cultures [3]: very stable
- Stability in simulated pancreatic fluid ([13]; 50 μM, 37° C., up to 240 min): very stable
- Hydrolysis of ester bond (sulphate) by pancreatic esterases ([13]; simulated pancreatic fluid): not hydrolyzed
- LogPA− (1-octanol-water partition coefficient, ionized species) [6]: 2.0
